Source: patent US10239887B2, “Positive allosteric modulators of the muscarinic acetylcholine receptor M4” (Vanderbilt University, priority 2016, dated 2019)
Where a name gives a salt, the structure may show the parent alone. Read-outs that look alike come from different tables or passages of the source.

Target: T1, human mAChR M4 (Homo sapiens, UniProt P08173)
T1 sequence (P08173 1-479): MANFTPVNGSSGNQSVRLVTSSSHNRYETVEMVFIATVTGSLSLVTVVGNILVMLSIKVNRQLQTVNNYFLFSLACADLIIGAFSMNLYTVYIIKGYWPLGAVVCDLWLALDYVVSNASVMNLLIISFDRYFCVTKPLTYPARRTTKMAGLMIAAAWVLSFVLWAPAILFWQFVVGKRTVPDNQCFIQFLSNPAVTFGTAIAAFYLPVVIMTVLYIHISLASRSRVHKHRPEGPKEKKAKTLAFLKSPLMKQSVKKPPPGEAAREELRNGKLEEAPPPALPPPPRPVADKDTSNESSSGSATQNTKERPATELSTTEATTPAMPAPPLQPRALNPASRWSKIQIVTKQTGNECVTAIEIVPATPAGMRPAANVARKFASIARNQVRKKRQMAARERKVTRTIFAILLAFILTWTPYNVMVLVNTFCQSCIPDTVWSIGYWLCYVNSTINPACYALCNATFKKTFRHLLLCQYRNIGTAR
Assay: mAChR M4 cell-based functional assay (calcium flux), human M4
Conditions: for EC50: Human M4 EC50, CHO-K1 hM4-Gqi5 cells, calcium flux, increase in EC20 acetylcholine response

[1] = Human M4, % ACh maximum at 30 μM

| Structure (SMILES) | Emax [1] [%] | EC50 [µM] | Emax [%] |
| --- | --- | --- | --- |
| Cc1cnc2sc3c(N4CCCC4)ncnc3c2c1 [Compound 15, 8-methyl-4-(pyrrolidin-1-yl) pyrido[3′,2′:4,5]thieno [3,2-d]pyrimidine] | 40 |  |  |
| Cc1cnc2sc3c(N4CCC(F)(F)C4)ncnc3c2c1 [Compound 16, 4-(3,3-difluoropyrrolidin-1-yl)-8-methylpyrido [3′,2′:4,5]thieno[3,2-d] pyrimidine] | 360 | 0.377 |  |
| Cc1nnc2sc3c(N4CC(F)(F)C4)ncnc3c2c1C [Compound 21, 8-(3,3-difluoroazetidin-1-yl)-3,4-dimethylpyrimido [4′,5′:4,5]thieno[2,3-c] pyridazine] | 64 | 0.426 |  |
| Cc1nnc2sc3c(NC4CN(c5ccc(C(F)(F)F)nc5)C4)ncnc3c2c1C [Compound 22, 3,4-dimethyl-N-(1-(6-(trifluoromethyl)pyridin-3-yl)azetidin-3-yl) pyrimido[4′,5′:4,5]thieno [2,3-c]pyridazin-8-amine] | 36 | ≥ 10 |  |
| Cc1nnc2sc3c(NC4CCN(c5ccccc5)C4)ncnc3c2c1C (stereo not drawn) [Compound 23, 3,4-dimethyl-N-(1-phenylpyrrolidin-3-yl) pyrimido[4′,5′:4,5]thieno [2,3-c]pyridazin-8-amine] | 27 | ≥ 10 |  |
| Cc1nnc2sc3c(NC4CC4)ncnc3c2c1C [Compound 25, N-cyclopropyl-3,4-dimethylpyrimido [4′,5′:4,5]thieno[2,3-c] pyridazin-8-amine] | 79 | 0.468 |  |
| COc1ccc(C2CC2Nc2ncnc3c2sc2nnc(C)c(C)c23)cc1 (stereo not drawn) [Compound 26, N-(2-(4-methoxyphenyl)cyclopropyl)-3,4-dimethylpyrimido [4′,5′:4,5]thieno[2,3-c] pyridazin-8-amine] | 44 | ≥ 10 |  |
| COc1ccc(CNc2ncnc3c2sc2nnc(C)c(C)c23)cc1F [Compound 27, N-(3-fluoro-4-methoxybenzyl)-3,4-dimethylpyrimido [4′,5′:4,5]thieno[2,3-c] pyridazin-8-amine] | 62 |  |  |
| Cc1nnc2sc3c(N4CCC(c5ccccc5)C4)ncnc3c2c1C (stereo not drawn) [Compound 28, 3,4-dimethyl-8-(3-phenylpyrrolidin-1-yl) pyrimido[4′,5′:4,5]thieno [2,3-c]pyridazine] | 49 |  |  |
| Cc1nnc2sc3c(NCc4ccc(-c5cccnc5F)cc4)ncnc3c2c1C [Compound 29, N-(4-(2-fluoropyridin-3-yl)benzyl)-3,4-dimethylpyrimido [4′,5′:4,5]thieno[2,3-c] pyridazin-8-amine] | 61 | 4.05 |  |
| Cc1nnc2sc3c(N4CC(Oc5ccc(F)cc5)C4)ncnc3c2c1C [Compound 30, 8-(3-(4-fluorophenoxy)azetidin-1-yl)-3,4-dimethylpyrimido [4′,5′:4,5]thieno[2,3-c] pyridazine] | 65 | 2.61 |  |
| Cc1nnc2sc3c(N4CC(Oc5ccccc5F)C4)ncnc3c2c1C [Compound 31, 8-(3-(2-fluorophenoxy)azetidin-1-yl)-3,4-dimethylpyrimido [4′,5′:4,5]thieno[2,3-c] pyridazine] | 60 | 2.16 |  |
| Cc1nnc2sc3c(N4CC(Oc5cccc(F)c5)C4)ncnc3c2c1C [Compound 32, 8-(3-(3-fluorophenoxy)azetidin-1-yl)-3,4-dimethylpyrimido [4′,5′:4,5]thieno[2,3-c] pyridazine] | 62 | 1.76 |  |
| Cc1nnc2sc3c(N4CC(Oc5ccccc5)C4)ncnc3c2c1C [Compound 33, 3,4-dimethyl-8-(3-phenoxyazetidin-1-yl) pyrimido[4′,5′:4,5]thieno [2,3-c]pyridazine] | 54 | 4.43 |  |
| Cc1nnc2sc3c(N4CC(C)(O)C4)ncnc3c2c1C [Compound 34, 1-(3,4-dimethylpyrimido [4′,5′:4,5]thieno[2,3-c]pyridazin-8-yl)-3-methylazetidin-3-ol] | 59 | 0.66 |  |
| CC(=O)N1CC(Nc2ncnc3c2sc2nnc(C)c(C)c23)C1 [Compound 35, 1-(3-((3,4-dimethylpyrimido [4′,5′:4,5]thieno[2,3-c]pyridazin-8-yl)amino)azetidin-1-yl)ethan-1-one] | 79 | 0.053 |  |
| Cc1nnc2sc3c(N4CC(=O)C4)ncnc3c2c1C [Compound 36, 1-(3,4-dimethylpyrimido [4′,5′:4,5]thieno[2,3-c]pyridazin-8-yl) azetidin-3-one] | 64 | 1 |  |
| Cc1nc2oc3c(NCc4ccc(C(C)(C)O)cc4)ncnc3c2c(C)c1Cl [Compound 39, 2-[4-[[(8-chloro-7,9-dimethyl-pyrido[3′,2′:4,5]furo[3,2-d]pyrimidin-4-yl)amino]methyl]phenyl] propan-2-ol] | 61.8 | 0.11 |  |

| Structure (SMILES) | Emax [1] [%] | EC50 [µM] | Emax [%] |
| --- | --- | --- | --- |
| CNc1ncnc2c1oc1nc(C)c(Cl)c(C)c12 [Compound 44, 8-chloro-N,7,9-trimethyl-pyrido[3′,2′:4,5]furo[3,2-d]pyrimidin-4-amine hydrochloride] | 39.8 | 1.69 |  |
| CCNc1ncnc2c1oc1nc(C)c(Cl)c(C)c12 [Compound 47, 8-chloro-N-ethyl-7,9-dimethyl-pyrido[3′,2′:4,5]furo[3,2-d]pyrimidin-4-amine hydrochloride] | 40.6 | 1.25 |  |
| Cc1nc2oc3c(NC4CC4c4ccc(F)c(F)c4)ncnc3c2c(C)c1Cl (stereo not drawn) [Compound 51, 8-chloro-N-[2-(3,4-difluorophenyl)cyclopropyl]-7,9-dimethyl-pyrido [3′,2′:4,5]furo[3,2-d]pyrimidin-4-amine hydrochloride] | 70 | 7.84 |  |
| Cc1cc(C)c2c(n1)oc1c(NC3CCC3)ncnc12 [Compound 55, N-Cyclobutyl-7,9-dimethyl-pyrido[3′,2′:4,5]furo[3,2-d]pyrimidin-4-amine hydrochloride] |  | 1.59 | 44.2 |
| Cc1cc(C)c2c(n1)oc1c(N3CC4(COC4)C3)ncnc12 [Compound 56, 7,9-dimethyl-4-(2-oxa-6-azaspiro[3.3]heptan-6-yl)pyrido[3′,2′:4,5]furo[3,2-d]pyrimidine] | 37.7 | 3.37 |  |
| Cc1cc(C)c2c(n1)oc1c(NCc3cccc(C(C)(C)O)c3)ncnc12 [Compound 57, 2-[3-[[(7,9-dimethylpyrido[3′,2′:4,5]furod[3,2-]pyrimidin-4-yl)amino]methyl]phenyl] propan-2-ol] | 23.7 | 4.27 |  |
| Cc1cc(C)c2c(n1)oc1c(NC3CN(c4ncc(F)cn4)C3)ncnc12 [Compound 59, N-[1-(5-fluoropyrimidin-2-yl)azetidin-3-yl]-7,9-dimethyl-pyrido[3′,2′:4,5]furo[3,2-d]pyrimidin-4-amine hydrochloride] | 34.9 |  |  |
| Cc1cc(C)c2c(n1)oc1c(NC3CN(c4cc(Cl)ncc4Cl)C3)ncnc12 [Compound 60, N-[1-(2,5-dichloro-4-pyridyl)azetidin-3-yl]-7,9-dimethyl-pyrido[3′,2′:4,5]furo[3,2-d]pyrimidin-4-amine dihydrochloride] |  | 1.49 | 49.3 |
| Cc1cc(C)c2c(n1)oc1c(NC3CC3c3ccc(F)c(F)c3)ncnc12 (stereo not drawn) [Compound 61, hydrochloride] | 56.3 | 3.38 |  |
| Cc1cc(C)c2c(n1)oc1c(NC3CC3)ncnc12 [Compound 62, N-cyclopropyl-7,9-dimethyl-pyrido[3′,2′:4,5]furo[3,2-d]pyrimidin-4-amine hydrochloride] |  |  | 63.9 |
| Cc1nnc2oc3c(NC4CN(c5ncc(F)cn5)C4)ncnc3c2c1C [Compound 63, N-[1-(5-Fluoropyrimidin-2-yl)azetidin-3-yl]-3,4-dimethyl-pyrimido[4′,5′:4,5]furo[2,3-c]pyridazin-8-amine] | 36.8 |  |  |
| Cc1nnc2oc3c(NCc4ccc(C5(O)CCC5)cc4)ncnc3c2c1C [Compound 64, 1-[4-[[(3,4-dimethylpyrimido [4′,5′:4,5]furo[2,3-c]pyridazin-8-yl)amino]methyl]phenyl] cyclobutanol] | 58.2 | 0.862 |  |
| Cc1nnc2oc3c(NCc4ccc(C(C)(C)O)cc4)ncnc3c2c1C [Compound 65, 2-[4-[[(3,4-dimethylpyrimido[4′,5′:4,5]furo[2,3-c]pyridazin-8-yl)amino]methyl]phenyl]propan-2-ol] | 61.2 | 2.29 |  |
| Cc1nnc2oc3c(NCc4cccc(C5(O)CCC5)c4)ncnc3c2c1C [Compound 66, 1-[3-[[(3,4-dimethylpyrimido [4′,5′:4,5]furo[2,3-c]pyridazin-8-yl)amino]methyl]phenyl]cyclobutanol] | 61.1 |  |  |
| Cc1nnc2oc3c(NCc4cccc(C(C)(C)O)c4)ncnc3c2c1C [Compound 67, 2-[3-[[(3,4-dimethylpyrimido [4′,5′:4,5]furo[2,3-c]pyridazin-8-yl)amino]methyl]phenyl]propan-2-ol] | 63.4 |  |  |
| Cc1nnc2oc3c(NC4CC4)ncnc3c2c1C [Compound 68, N-cyclopropyl-3,4-dimethyl-pyrimido [4′,5′:4,5]furo[2,3-c]pyridazin-8-amine] | 66.5 | 1.31 |  |
| Cc1nnc2oc3c(NC4CCC4)ncnc3c2c1C [Compound 69, N-cyclobutyl-3,4-dimethyl-pyrimido [4′,5′:4,5]furo[2,3-c]pyridazin-8-amine] | 54.8 |  |  |
| Cc1nnc2oc3c(NC4CCCC4)ncnc3c2c1C [Compound 70, N-cyclopentyl-3,4-dimethyl-pyrimido [4′,5′:4,5]furo[2,3-c]pyridazin-8-amine] | 45.9 | 0.818 |  |
